Experimental data published in US20220378923A1, “BET DEGRADER” (KYOWA KIRIN CO., LTD., priority 2019, published 2022).

Tested on: SU-DHL-4 cells
Assay: Inhibitory effect on cell viability in SU-DHL-4 cell line (Test Example 1)
Format: cell-based, human
Conditions: Homo sapiens; SU-DHL-4 cells, 72 hours, Cell Counting Kit-8; concentration showing 90% inhibition of cell viability; read-out: SU-DHL-4 Cell Viability Inhibition Rate IC90
Description: SU-DHL-4 cells (Code No. ACC 495, Deutsche Sammlung von Mikroorganismen and Zellkulturen GmbH; DSMZ) were cultured at 37° C. using a carbon dioxide incubator (95% air, 5% CO2) in RPMI1640 medium (Code No. 11875-093, Thermo Fisher Scientific) in which inactivated fetal bovine serum (FBS: Code No. 10099-148, Thermo Fisher Scientific) in an amount to give a final concentration of 10 vol % and penicillin/streptomycin solution (PS: […] The cells were passaged twice a week at a volume of 20-40 mL so as to maintain a cell concentration of 1×10^6 cells/mL or less. […] After seeding, the cells were precultured at 37° C. in a carbon dioxide gas incubator for 18 to 25 hours. […] At this time, the final concentration of DMSO was adjusted to be 0.1 vol %. After adding the test compound, the cells were cultured at 37° C. in a carbon dioxide gas incubator for 72 hours. Next, 0.020 mL of Cell Counting Kit-8 (Code No. CK04, DOJINDO) solution diluted 2-fold or 4-fold with phosphate buffered saline (PBS) was added to each well. Color reaction was carried out in a carbon dioxide gas incubator at 37° C. for 2 to 3 hours, and the absorbance at a wavelength of 450 nm was measured using SpectraMax 340PC (Molecular Devices). […] Absorbance of a well containing test compound • B: Absorbance of a well without addition of cells • C: Absorbance of a well without addition of test compound

| IC90 [nM] | SMILES |
| --- | --- |
| 32.7 | CCC(=O)N1c2ccccc2[C@H](Nc2ccc(NC(=O)CNCC(=O)Nc3ccc(N[C@@H]4C[C@H](C)N(C(=O)CC)c5ccccc54)nc3)cc2)C[C@@H]1C (relative stereo) [Compound 17g, N-(4-(((2S,4R)-2-Methyl-1-propionyl-1,2,3,4-tetrahydroquinolin-4-yl)amino)phenyl)-2-((2-((6-(((2S*,4R*)-2-methyl-1-propionyl-1,2,3,4-tetrahydroquinolin-4-yl)amino)pyridin-3-yl)amino)-2-oxoethyl)amino)acetamide] |

Same assay, conditions: SU-DHL-4 cells, 72 hours, Cell Counting Kit-8; concentration showing 90% inhibition of cell viability; read-out: SU-DHL-4 Cell Viability Inhibition Rate IC90

| IC90 [nM] | SMILES |
| --- | --- |
| 0.34 | CCC(=O)N1c2ccccc2[C@H](NC2CCC(NC(=O)C#CCNC(=O)c3ccc(C4=NCc5nnc(C)n5-c5sc(C)c(C)c54)cc3)CC2)C[C@@H]1C (relative stereo) [Compound 14c, N-(4-(((1R,4r)-4-(((2S*,4R*)-2-Methyl-1-propionyl-1,2,3,4-tetrahydroquinolin-4-yl)amino)cyclohexyl)amino)-4-oxobut-2-yn-1-yl)-4-(2,3,9-trimethyl-6H-thieno[3,2-f][1,2,4]triazolo[4,3-a][1,4]diazepin-4-yl)benzamide] |
| 0.2 | CCC(=O)N1c2ccccc2[C@@H](Nc2ccc(-n3cc(CNC(=O)C4CCC(N[C@@H]5C[C@H](C)N(C(=O)CC)c6ccccc65)CC4)nn3)cn2)C[C@H]1C (relative stereo) [Compound 17h, (1R,4S)-4-(((2S,4R)-2-Methyl-1-propionyl-1,2,3,4-tetrahydroquinolin-4-yl)amino)-N-((1-(6-(((2R*,4S*)-2-methyl-1-propionyl-1,2,3,4-tetrahydroquinolin-4-yl)amino)pyridin-3-yl)-1H-1,2,3-triazol-4-yl)methyl)cyclohexane-1-carboxamide] |

Second part, the compound before the results:

| SMILES | IC90 [nM] |
| --- | --- |
| CCC(=O)N1c2ccccc2[C@H](Nc2ccc(-c3cnc4n3CCN(C(=O)C3CCC(N[C@@H]5C[C@H](C)N(C(=O)CC)c6ccccc65)CC3)C4)cc2)C[C@@H]1C (relative stereo) [Compound 8h, 1-((2S*,4R*)-2-methyl-4-(((1R,4R)-4-(3-(4-(((2S,4R)-2-methyl-1-propionyl-1,2,3,4-tetrahydroquinolin-4-yl)amino)phenyl)-5,6,7,8-tetrahydroimidazo[1,2-a]pyrazine-7-carbonyl)cyclohexyl)amino)-3,4-dihydroquinolin-1(2H)-yl)propan-1-one] | 1.14 |
| CCC(=O)N1c2ccccc2[C@H](Nc2ccc(SCCNC(=O)C3CCC(N[C@@H]4C[C@H](C)N(C(=O)CC)c5ccccc54)CC3)cc2)C[C@@H]1C (relative stereo) [Compound 8i, (1R,4R)-4-(((2S*,4R*)-2-Methyl-1-propionyl-1,2,3,4-tetrahydroquinolin-4-yl)amino)-N-(2-((4-(((2S,4R)-2-methyl-1-propionyl-1,2,3,4-tetrahydroquinolin-4-yl)amino)phenyl)thio)ethyl)cyclohexane-1-carboxamide] | 2.69 |
| CCC(=O)N1c2ccccc2[C@H](Nc2ccc(-c3nc(CNC(=O)C4CCC(N[C@@H]5C[C@H](C)N(C(=O)CC)c6ccccc65)CC4)no3)cc2)C[C@@H]1C (relative stereo) [Compound 8k, (1R,4R)-4-(((2S*,4R*)-2-Methyl-1-propionyl-1,2,3,4-tetrahydroquinolin-4-yl)amino)-N-((5-(4-(((2S,4R)-2-methyl-1-propionyl-1,2,3,4-tetrahydroquinolin-4-yl)amino)phenyl)-1,2,4-oxadiazol-3-yl)methyl)cyclohexane-1-carboxamide] | 0.26 |
| CCC(=O)N1c2ccccc2[C@H](Nc2ccc(-n3cc(CNC(=O)C4CCC(N[C@@H]5C[C@H](C)N(C(=O)CC)c6ccccc65)CC4)nn3)cc2)C[C@@H]1C (relative stereo) [Compound 8l, (1R,4R)-4-(((2S*,4R*)-2-Methyl-1-propionyl-1,2,3,4-tetrahydroquinolin-4-yl)amino)-N-((1-(4-(((2S,4R)-2-methyl-1-propionyl-1,2,3,4-tetrahydroquinolin-4-yl)amino)phenyl)-1H-1,2,3-triazol-4-yl)methyl)cyclohexane-1-carboxamide] | 0.04 |
| CCC(=O)N1c2ccccc2[C@H](Nc2ccc(NC(=O)NCCNC(=O)C3CCC(N[C@@H]4C[C@H](C)N(C(=O)CC)c5ccccc54)CC3)cc2)C[C@@H]1C (relative stereo) [Compound 8n, (1R,4r)-4-(((2S*,4R*)-2-Methyl-1-propionyl-1,2,3,4-tetrahydroquinolin-4-yl)amino)-N-(2-(3-(4-(((2S,4R)-2-methyl-1-propionyl-1,2,3,4-tetrahydroquinolin-4-yl)amino)phenyl)ureido)ethyl)cyclohexane-1-carboxamide] | 1.17 |
| CCC(=O)N1c2ccccc2[C@H](Nc2ccc(-c3cnn(CCNC(=O)C4CCC(N[C@@H]5C[C@H](C)N(C(=O)CC)c6ccccc65)CC4)c3)cc2)C[C@@H]1C (relative stereo) [Compound 8o, (1R,4r)-4-(((2S*,4R*)-2-Methyl-1-propionyl-1,2,3,4-tetrahydroquinolin-4-yl)amino)-N-(2-(4-(4-(((2S,4R)-2-methyl-1-propionyl-1,2,3,4-tetrahydroquinolin-4-yl)amino)phenyl)-1H-pyrazol-1-yl)ethyl)cyclohexane-1-carboxamide] | 0.49 |
| CCC(=O)N1c2ccccc2[C@H](Nc2ccc(NC(=O)C3CCN(C(=O)C4CCC(N[C@@H]5C[C@H](C)N(C(=O)CC)c6ccccc65)CC4)CC3)cc2)C[C@@H]1C (relative stereo) [Compound 8q, 1-((1R,4r)-4-(((2S*,4R*)-2-Methyl-1-propionyl-1,2,3,4-tetrahydroquinolin-4-yl)amino)cyclohexane-1-carbonyl)-N-(4-(((2S,4R)-2-methyl-1-propionyl-1,2,3,4-tetrahydroquinolin-4-yl)amino)phenyl)piperidine-4-carboxamide] | 19 |
| CCC(=O)N1c2ccccc2[C@H](Nc2ccc(C(=O)NCCS(=O)(=O)NC3CCC(N[C@@H]4C[C@H](C)N(C(=O)CC)c5ccccc54)CC3)cc2)C[C@@H]1C (relative stereo) [Compound 9a, 4-(((2S,4R)-2-Methyl-1-propionyl-1,2,3,4-tetrahydroquinolin-4-yl)amino)-N-(2-(N-((1R,4R)-4-(((2S*,4R*)-2-methyl-1-propionyl-1,2,3,4-tetrahydroquinolin-4-yl)amino)cyclohexyl)sulfamoyl)ethyl)benzamide] | 1.68 |
| CCC(=O)N1c2ccccc2[C@H](Nc2ccc(-c3cnn(CC(=O)NC4CCC(N[C@@H]5C[C@H](C)N(C(=O)CC)c6ccccc65)CC4)c3)cc2)C[C@@H]1C (relative stereo) [Compound 9b, N-((1R,4R)-4-(((2S*,4R*)-2-Methyl-1-propionyl-1,2,3,4-tetrahydroquinolin-4-yl)amino)cyclohexyl)-2-(4-(4-(((2S,4R)-2-methyl-1-propionyl-1,2,3,4-tetrahydroquinolin-4-yl)amino)phenyl)-1H-pyrazol-1-yl)acetamide] | 3.18 |
| CCC(=O)N1c2ccccc2[C@H](Nc2ccc(NC(=O)NCC(=O)NC3CCC(N[C@@H]4C[C@H](C)N(C(=O)CC)c5ccccc54)CC3)cc2)C[C@@H]1C (relative stereo) [Compound 9c, N-((1R,4R)-4-(((2S*,4R*)-2-Methyl-1-propionyl-1,2,3,4-tetrahydroquinolin-4-yl)amino)cyclohexyl)-2-(3-(4-(((2S,4R)-2-methyl-1-propionyl-1,2,3,4-tetrahydroquinolin-4-yl)amino)phenyl)ureido)acetamide] | 12.4 |
| CCC(=O)N1c2ccccc2[C@H](Nc2ccc(C(=O)NCC#CC(=O)NC3CC(N[C@@H]4C[C@H](C)N(C(=O)CC)c5ccccc54)C3)cc2)C[C@@H]1C (relative stereo) [Compound 10f, 4-(((2S,4R)-2-Methyl-1-propionyl-1,2,3,4-tetrahydroquinolin-4-yl)amino)-N-(4-(((1R,3R)-3-(((2S*,4R*)-2-methyl-1-propionyl-1,2,3,4-tetrahydroquinolin-4-yl)amino)cyclobutyl)amino)-4-oxobut-2-yn-1-yl)benzamide] | 0.92 |
| CCC(=O)N1c2ccccc2[C@H](NCc2ccc(C(=O)NCc3cn(-c4ccc(N[C@@H]5C[C@H](C)N(C(=O)CC)c6ccccc65)cc4)nn3)cc2)C[C@@H]1C (relative stereo) [Compound 10h, 4-((a2S*,4R*)-2-Methyl-1-propionyl-1,2,3,4-tetrahydroquinolin-4-yl)amino)methyl)-N-((1-(4-(((2S,4R)-2-methyl-1-propionyl-1,2,3,4-tetrahydroquinolin-4-yl)amino)phenyl)-1H-1,2,3-triazol-4-yl)methyl)benzamide] | 0.35 |
| CCC(=O)N1c2ccccc2[C@H](NCCCCC(=O)NCc2nnc(-c3ccc(N[C@@H]4C[C@H](C)N(C(=O)CC)c5ccccc54)cc3)o2)C[C@@H]1C (relative stereo) [Compound 12j, 5-(((2S*,4R*)-2-Methyl-1-propionyl-1,2,3,4-tetrahydroquinolin-4-yl)amino)-N-((5-(4-(((2S,4R)-2-methyl-1-propionyl-1,2,3,4-tetrahydroquinolin-4-yl)amino)phenyl)-1,3,4-oxadiazol-2-yl)methyl)pentane amide] | 17.4 |
